Measured values from patent US20240101971A1 (Biogen MA Inc., priority 2021, published 2024).
Counter-ions that a name gives are not always drawn.

Assays:
suspension HEK293 cells [1] = experiment: rAAV production at manufacturing scale, batch and fed batch bioreactors, suspension HEK293 cells, Payload A; assay type: cell-based; settings: added 0.5 hours post-transfection
Method: Scalability of microtubule destabilizing agents (colcemid and colchicine) for production of rAAV was also assessed in batch bioreactors and larger volume fed batch bioreactors for manufacturing scale. Suspension HEK293 cells were transiently transfected with plasmids encoding Payload A flanked by an ITR on either side, at least one Rep polypeptide, at least one Cap polypeptide, and at least one helper polypeptide, colcemid was added at 0.5 hours post-transfection, and cells were cultured in 3-liter batch bioreactors or 250-liter fed bioreactors for a period of time e.g., several days prior to sampling.

suspension HEK293 cells [2] = experiment: FACS analysis (propidium iodide) of cell cycle phase of non-transfected suspension HEK293 cultures; assay type: cell-based; settings: for cell synchronization, cell cycle phase by FACS: 24 hours with agent, non-transfected suspension HEK293 cultures, FIG. 2A
Method: Cell cycle phase of non-transfected, suspension HEK293 cultures was evaluated using fluorescence activated cell sorting (FACS). Suspension HEK293 cultures were grown in shake flasks for 24 hours with cycle arresting agents (aphidicolin, caffeine, colcemid, colchicine, flavopiridol, hydroxyurea, thymidine, trichostatin A, and vinblastine sulfate) prior to sampling for FACS analysis using propidium iodide (PI), which binds to DNA. Light intensity is indicative of the relative quantity of DNA present in a cell, which is a measure of cell phase. Forward scatter indicates the a size of a cell, while side scatter indicates the a size of intracellular components. Fluorescence of PI was measured using an excitation of 493 nm and emission of 646 nm.

Row | Structure (SMILES) | rAAV particle titer relative to controls (suspension HEK293 cells [1]; 3-liter batch bioreactors, FIG. 8A) | rAAV particle titer relative to controls (suspension HEK293 cells [1]; 250-liter fed bioreactors, FIG. 8B-8C) | cell synchronization, cell cycle phase by FACS (suspension HEK293 cells [2]) | cell cycle arrest, phase (suspension HEK293 cells [2]; suspension HEK293 cell cultures, FIG. 2B)
1 | CN[C@H]1CCc2cc(OC)c(OC)c(OC)c2-c2ccc(OC)c(=O)cc21 [colcemid, N-deacetyl-N-methylcolchicine] | increase | increase | G2 phase | G2/M phase
2 | COc1cc2c(c(OC)c1OC)-c1ccc(OC)c(=O)cc1[C@@H](NC(C)=O)CC2 [colchicine, (S)—N-(5,6,7,9-tetrahydro-1,2,3,10-tetramethoxy-9-oxobenzo[a]heptalen-7-yl)acetamide] |  |  | G2 phase | 
3 | CC[C@]1(O)C[C@H]2C[N@](CCc3c([nH]c4ccccc34)[C@@](C(=O)OC)(c3cc4c(cc3OC)N(C)[C@H]3[C@@](O)(C(=O)OC)[C@H](OC(C)=O)[C@]5(CC)C=CCN6CC[C@]43[C@@H]65)C2)C1 [vinblastine sulfate, vincaleukoblastine] |  |  | G2 phase | 
